Measured values published in ChEMBL document CHEMBL5576054, “Lead compound profiling for small molecule inhibitors of the REV1-CT/RIR Translesion synthesis Protein-Protein interaction” (Bioorg Med Chem, 2024).
In brackets after ≈: the same amount, converted by molar mass. Activity calls are given as the source filed them. No cut-off for these calls is given here.

Legend:
[1] = Disruption of C-terminal REV-1/FAM-tagged Pol kappa RIR (unknown origin) interaction incubated for 1 hr by FP assay; parameters: species or system Homo sapiens
[2] = Metabolic stability in human liver microsomes assessed as intrinsic clearance at 1 uM incubated upto 60 mins by LC-MS/MS analysis; type: ADME, Microsome; conditions: 1 h
[3] = Solubility of compound in PBS at pH 7.4; type: physicochemical
[4] = Solubility of compound in PBS at pH 4; type: physicochemical; conditions: buffer
[5] = target: T1, DNA repair protein REV1 (Homo sapiens) (UniProt Q9UBZ9); experiment: Binding affinity to C-terminal human REV-1 incubated for 30 mins by MST assay
T1 sequence (whole entry): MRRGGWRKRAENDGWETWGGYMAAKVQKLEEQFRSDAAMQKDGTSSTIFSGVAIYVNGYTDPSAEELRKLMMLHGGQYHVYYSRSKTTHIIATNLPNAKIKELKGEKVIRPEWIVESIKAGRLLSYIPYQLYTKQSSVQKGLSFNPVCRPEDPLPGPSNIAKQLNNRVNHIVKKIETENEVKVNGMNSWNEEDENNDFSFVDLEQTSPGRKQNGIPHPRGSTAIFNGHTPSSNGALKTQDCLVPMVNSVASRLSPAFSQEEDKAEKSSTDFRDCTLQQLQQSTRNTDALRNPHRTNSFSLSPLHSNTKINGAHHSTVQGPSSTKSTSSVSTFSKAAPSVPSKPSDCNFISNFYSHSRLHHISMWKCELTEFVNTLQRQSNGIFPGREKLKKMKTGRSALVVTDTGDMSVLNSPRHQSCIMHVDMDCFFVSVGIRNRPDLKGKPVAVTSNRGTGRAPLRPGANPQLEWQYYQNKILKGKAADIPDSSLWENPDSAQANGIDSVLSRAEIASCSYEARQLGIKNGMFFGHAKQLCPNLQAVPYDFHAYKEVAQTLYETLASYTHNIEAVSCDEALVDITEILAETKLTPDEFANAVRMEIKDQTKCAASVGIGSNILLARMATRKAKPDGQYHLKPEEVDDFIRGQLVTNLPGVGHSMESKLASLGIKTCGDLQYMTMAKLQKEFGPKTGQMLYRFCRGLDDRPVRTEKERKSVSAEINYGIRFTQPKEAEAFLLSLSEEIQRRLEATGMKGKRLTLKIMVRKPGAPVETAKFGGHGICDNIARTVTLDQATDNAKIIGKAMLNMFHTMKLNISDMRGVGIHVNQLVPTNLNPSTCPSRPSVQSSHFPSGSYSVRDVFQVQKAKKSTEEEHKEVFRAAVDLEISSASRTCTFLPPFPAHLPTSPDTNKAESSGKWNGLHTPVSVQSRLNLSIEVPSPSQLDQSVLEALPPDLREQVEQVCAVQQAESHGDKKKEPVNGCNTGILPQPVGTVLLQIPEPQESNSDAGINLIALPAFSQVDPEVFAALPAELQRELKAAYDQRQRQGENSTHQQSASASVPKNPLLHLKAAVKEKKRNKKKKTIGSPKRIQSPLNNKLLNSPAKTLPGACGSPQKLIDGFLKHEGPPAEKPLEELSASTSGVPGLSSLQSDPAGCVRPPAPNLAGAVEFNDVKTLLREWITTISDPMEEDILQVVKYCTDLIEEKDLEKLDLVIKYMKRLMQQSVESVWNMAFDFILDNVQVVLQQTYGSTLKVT

[6] = Metabolic stability in human liver microsomes assessed as half life at 1 uM incubated upto 60 mins by LC-MS/MS analysis; type: ADME, Microsome; conditions: 1 h
[7] = Toxicity in BALB/c nude mouse assessed as animal death at 200 mg/kg, po qd measured for 3 days; type: organism-based; conditions: in vivo, 72 h, time 3 day
[8] = Volume of distribution at steady state in CD-1 mouse at 1 mg/kg, iv by LC-MS/MS analysis; type: ADME, organism-based; conditions: CD-1, mouse, in vivo, read-out: Vdss
DNA repair protein REV1 = target: T2, DNA repair protein REV1 (Homo sapiens, UniProt Q9UBZ9); experiment: Binding affinity to C-terminal human REV-1 assessed as dissociation constant incubated for 30 mins by MST assay
T2 sequence (Q9UBZ9 whole entry): T1 sequence (whole entry)

[9] = AUClast in CD-1 mouse at 1 mg/kg, iv by LC-MS/MS analysis; type: ADME, organism-based; conditions: in vivo
[10] = C0 in CD-1 mouse at 1 mg/kg, iv by LC-MS/MS analysis; type: ADME, organism-based; conditions: CD-1, mouse, in vivo, read-out: C0
[11] = Toxicity in BALB/c nude mouse assessed as general impairment at 30 to 100 mg/kg, po qd for 7 days; type: organism-based; conditions: in vivo, 168 h, dose 30-100 mg/kg, time 7 day
[12] = AUClast in CD-1 mouse at 100 mg/kg, ip by LC-MS/MS analysis; type: ADME, organism-based; conditions: in vivo
[13] = AUC (infinity) in CD-1 mouse at 1 mg/kg, iv by LC-MS/MS analysis; type: ADME, organism-based; conditions: in vivo
SW1271 [14] = experiment: Synergistic inhibition of cell viability in human SW1271 cells with Rev1-/- at 20 uM incubated for 5 days in presence of Olaparib/Temozolomide by Cell Titer Glo assay; type: functional, cell-based; conditions: time 5.0 day
[15] = Toxicity in BALB/c nude mouse assessed as visual signs of toxicity at 30 to 100 mg/kg, po qd for 7 days; type: organism-based; conditions: in vivo, 168 h, dose 30-100 mg/kg, time 7 day
MEF [16] = experiment: Synergistic inhibition of cologenic survival in mouse MEF cells at 10 uM incubated for 24 hrs followed by fresh media replacement without compound measured after 4 days in presence of cisplatin by crystal violet staining based analysis; type: functional, cell-based
[17] = Dose normalized AUClast in CD-1 mouse at 100 mg/kg, ip by LC-MS/MS analysis; type: ADME, organism-based; conditions: in vivo
[18] = Toxicity in BALB/c nude mouse assessed as effect on body weight at 30 to 100 mg/kg, po qd for 7 days; type: organism-based; conditions: in vivo, 168 h, dose 30-100 mg/kg, time 7 day
[19] = MRT (infinity) in CD-1 mouse at 1 mg/kg, iv by LC-MS/MS analysis; type: ADME, organism-based; conditions: CD-1, mouse, in vivo
MEF [20] = experiment: Synergistic inhibition of cologenic survival in mouse MEF cells with Rev1-/- at 10 uM incubated for 24 hrs followed by fresh media replacement without compound measured after 4 days in presence of cisplatin by crystal violet staining based analysis; type: functional, cell-based
[21] = Tmax in CD-1 mouse at 100 mg/kg, ip by LC-MS/MS analysis; type: ADME, organism-based; conditions: in vivo
[22] = Area under curve extrapolated from the last time point to infinity in CD-1 mouse at 1 mg/kg, iv by LC-MS/MS analysis; type: ADME, organism-based; conditions: in vivo
MEF [23] = experiment: Inhibition of cologenic survival in mouse MEF cells at 10 uM incubated for 24 hrs followed by fresh media replacement without compound measured after 4 days by crystal violet staining based analysis; type: functional, cell-based
[24] = MRT (infinity) in CD-1 mouse at 100 mg/kg, ip by LC-MS/MS analysis; type: ADME, organism-based; conditions: in vivo
SW1271 [25] = experiment: Synergistic inhibition of cell viability in human SW1271 cells at 20 uM incubated for 5 days in presence of Olaparib/Temozolomide by Cell Titer Glo assay; type: functional, cell-based; conditions: time 5.0 day
[26] = Half life in CD-1 mouse at 1 mg/kg, iv by LC-MS/MS analysis; type: ADME, organism-based; conditions: CD-1, mouse, in vivo
A549 = experiment: Inhibition of cologenic survival in human A549 cells incubated for 8 to 10 days by crystal violet staining based analysis; type: functional, cell-based; conditions: time 8-10 day
[27] = Dose normalized AUClast in CD-1 mouse at 1 mg/kg, iv by LC-MS/MS analysis; type: ADME, organism-based; conditions: in vivo
[28] = Cmax in CD-1 mouse at 100 mg/kg, ip by LC-MS/MS analysis; type: ADME, organism-based; conditions: in vivo
[29] = AUC (infinity) in CD-1 mouse at 100 mg/kg, ip by LC-MS/MS analysis; type: ADME, organism-based; conditions: in vivo
[30] = Clearance in CD-1 mouse at 1 mg/kg, iv by LC-MS/MS analysis; type: ADME, organism-based; conditions: in vivo
[31] = Toxicity in BALB/c nude mouse administered orally once daily for 7 days; conditions: in vivo, route po, time 7 day
[32] = Toxicity in BALB/c nude mouse assessed as decrease in animal weight at 200 mg/kg, po qd measured for 2 days; type: organism-based; conditions: in vivo, 48 h, time 2 day
[33] = Area under curve extrapolated from the last time point to infinity in CD-1 mouse at 100 mg/kg, ip by LC-MS/MS analysis; type: ADME, organism-based; conditions: in vivo
[34] = Half life in CD-1 mouse at 100 mg/kg, ip by LC-MS/MS analysis; type: ADME, organism-based; conditions: in vivo

`CCCc1cc(C(=O)OCC)c(NC(=O)C2CCCN(C(=O)OC(C)(C)C)C2)s1` (stereo not drawn) gave an IC50 [1] of 2500 nM.

For `Cc1cccn2c(=O)c3cc(C(=O)N[C@@H](C)c4ccccc4)c(N)[n+](CCOCCO)c3nc12`, the “intrinsic clearance (CLint)” value [2] was 14.2 µL/min/mg, the solubility [3] was 51.7 µM and the IC50 [1] was 1600 nM. The solubility [4] was 302 µM, the Activity [5] was “inactive” and the t1/2 [6] was 97.6 min.

For `Nc1ccc(/N=N/c2cccc(F)c2F)c(N)n1`, the Activity [7] was “Toxic”, the Vd [8] was 2.81 L/kg and the Kd (DNA repair protein REV1) was 21000 nM. For the same compound, the AUC(0-t) [9] was 97 ng·h/mL, the C0 [10] was 412 ng/mL and the Activity [11] was “Non-Toxic”. For the same compound, the AUC(0-t) [12] was 25300 ng·h/mL, the AUC(0-inf) [13] was 97 ng·h/mL and the inhibition (SW1271 [14]) was “inactive”. The Activity [15] was “Non-Toxic”, the inhibition (MEF [16]) was “Active” and the AUClast/dose [17] was 253 ng·h/mL. For the same compound, the Activity [18] was “Non-Toxic”, the MRT inf [19] was 15.8 min and the inhibition (MEF [20]) was “inactive”. The Tmax [21] was 25 min, the “intrinsic clearance (CLint)” value [2] was greater than 300 µL/min/mg and the solubility [3] was 8.5 µM (≈ 2.12 µg/mL). The IC50 [1] was 400 nM, the “%AUCextra” value [22] was 0.77% and the inhibition (MEF [23]) was “inactive”. For the same compound, the MRT inf [24] was 124 min, the inhibition (SW1271 [25]) was “Active” and the half-life [26] was 20.3 min. For the same compound, the inhibition (A549) was “Active”, the AUClast/dose [27] was 96.7 ng·h/mL and the Cmax [28] was 12500 ng/mL. It also gave an AUC(0-inf) [29] of 25500 ng·h/mL, a solubility [4] of 4.5 µM (≈ 1.12 µg/mL) and a clearance [30] of 177 mL/min/kg. For the same compound, the MTD at 168 h [31] was no more than 100 mg/kg, the Activity [32] was “Toxic” and the “%AUCextra” value [33] was 0.58%. It also gave a half-life [34] of 269 min and a t1/2 [6] of less than 2.3 min.

For `CC(=O)C(C)n1c(CN2CCN(c3cccc(Cl)c3)CC2)nc2c1c(=O)n(C)c(=O)n2C` (stereo not drawn), the “intrinsic clearance (CLint)” value [2] was 202 µL/min/mg, the solubility [3] was 177 µM (≈ 81.2 µg/mL) and the solubility [4] was 45.5 µM (≈ 20.9 µg/mL). It also gave a t1/2 [6] of 3.4 min.

`CCCc1cc(C(=O)OCC)c(NC(=O)C2CCCNC2)s1` (stereo not drawn) gave an IC50 [1] of 1200 nM.

`C=CCOc1cccc(C(=O)Nc2sc(CCC)cc2C(=O)OCC)c1` showed an IC50 [1] of 66200 nM.

`CCCc1cc(C(=O)OCC)c(NC(=O)C2CCN(C(=O)OC(C)(C)C)CC2)s1` showed an IC50 [1] of 2300 nM.

With `COc1ccc(OC)c(-c2csc(N3CCN(C(=O)c4ccco4)CC3)n2)c1` the Kd (DNA repair protein REV1) was greater than 200000 nM, the “intrinsic clearance (CLint)” value [2] was 58.8 µL/min/mg and the solubility [3] was 0.7 µM (≈ 0.28 µg/mL). It also gave an IC50 [1] of 6200 nM, a solubility [4] of 1.3 µM (≈ 0.519 µg/mL) and a t1/2 [6] of 23.6 min.

Compound `C=CCOc1ccc(C(=O)Nc2sc(CCC)cc2C(=O)OCC)cc1` has an IC50 [1] of 25300 nM.

For `Cc1ccc(C(=O)N2CCN(c3ccccc3)CC2)cc1S(=O)(=O)N1CCOCC1`, the “intrinsic clearance (CLint)” value [2] was 210 µL/min/mg, the solubility [3] was 14.1 µM (≈ 6.06 µg/mL) and the solubility [4] was 13.9 µM (≈ 5.97 µg/mL). For the same compound, the t1/2 [6] was 6.6 min.

With `Nc1ccc(/N=N/c2ccc3ccccc3c2)c(N)c1` the inhibition (A549) was “Active”.

With `CCCc1cc(C(=O)OCC)c(NC(=O)c2cc(O)cc(O)c2)s1` the IC50 [1] was greater than 100000 nM.

Work on `CC(=O)N1CCC(C(=O)NCCc2cccs2)CC1` yielded an IC50 [1] greater than 100000 nM.

For `CCCCc1ccc(-n2nnc(C(=O)N(C)C3CCS(=O)(=O)C3)c2C)cc1` (stereo not drawn), the “intrinsic clearance (CLint)” value [2] was 27.8 µL/min/mg, the solubility [3] was 10 µM (≈ 3.91 µg/mL) and the solubility [4] was 11.7 µM (≈ 4.57 µg/mL). The t1/2 [6] was 49.9 min.

Compound `CCCc1cc(C(=O)OCC)c(NC(=O)C2CCN(C(C)=O)CC2)s1` has an IC50 [1] of 2900 nM.
